# In patent US10596082B2, “Oral care compositions and methods of use” (Colgate-Palmolive Company, priority 2017, dated 2020):
# Tested on: microorganisms
# Assay: Bactericidal testing of toothpaste final base made with contaminated PCC slurry (plate count)
# Conditions: final toothpaste base with previously contaminated PCC slurry, plated on MLA, 30° C.
# Procedure: In a stainless steel bucket, water and humectant was first added and stirred using an overhead stirrer (EUROSTAR 200, IKA, North Carolina, USA) equipped with a cowles disperser. Mixing was started at 500 rpm for 1 minute. Gum and salts (buffering agents, sweetener, fluoride) were added next and the resulting solution was mixed at 1,000 rpm for 20 minutes to obtain a gel phase.
# A fraction of the gel phase sample was transferred to a new stainless steel bucket. Using an overhead stirrer (EUROSTAR 200, IKA) equipped with a 4-bladed propeller stirrer, mixing was performed at 750 rpm for 1 minute. Next, to the mixture was added water, PCC slurry (previously contaminated for the study purpose), surfactant, and other ingredients (benzyl alcohol/caprylyl glycol or phenethyl alcohol/caprylyl glycol) and mixed for 15 minutes to obtain the final base.
# Sample preparation was made by mixing 10 grams of the final base (see Example 1) with 90 mL of diluent (TAT broth (catalog #298410, BD) supplemented with 0.3% NaCl and 4% Tween) to achieve a 1:10 dilution. Serial dilutions of 10^−1 to 10^−6 were made in neutralizing broth (TAT supplemented with 0.3% NaCl), allowed to incubate for 0, 2, 4, 6, 24 and 48 hours, and plated in 15-20 mL of melted Modified Letheen Agar (MLA). Plates were swirled to allow complete dispersion and allowed to solidify. Solidified plates were then inverted and incubated at 30° C. for at least 48 hours. Colonies were counted using a Quebec colony counter (Phoenix Luferco, Brazil). Table 2 presents the study results, showing numbers of microorganisms per gram of product (CFU/) at different time points.
Compound,"numbers of microorganisms per gram of product, 0 hr","numbers of microorganisms per gram of product, 2 hr","numbers of microorganisms per gram of product, 4 hr","numbers of microorganisms per gram of product, 6 hr","numbers of microorganisms per gram of product, 24 hr","numbers of microorganisms per gram of product, 48 hr"
"OCc1ccccc1 [Benzyl alcohol (0.30%), Benzyl alcohol]","13,300 CFU/","18,250 CFU/","13,000 CFU/","8,000 CFU/","3,650 CFU/",125 CFU/
"CCCCCCC(O)CO (stereo not drawn) [Caprylyl glycol (0.20%), Caprylyl glycol]","13,300 CFU/","14,000 CFU/","1,200 CFU/","2,100 CFU/",435 CFU/,80 CFU/
